For this test, the system named is L1210 leukemia ip in BDF1 mice, survival T/C. Nature of the test: NCI In Vivo Anticancer Drug Screen. Data for tumor model L1210 Leukemia (intraperitoneal) in B6D2F1 (BDF1) mice. To be noted: endpoint: mean survival time, higher = longer survival. The method in brief: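 Transplanted-tumor mice were given test agent; controls received vehicle only. Survival readings from the two groups were divided (treated over control).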

Setting [1] is: dose: 100.0 mg/kg/injection, schedule: Q01DX009 (ip), vehicle: Klucel (hydroxypropylcellulose) (HPC).
Where [2] appears, read: dose: 100.0 mg/kg/injection, schedule: Q04DX003 (ip), vehicle: Klucel (hydroxypropylcellulose) (HPC).
Setting [3] is: dose: 200.0 mg/kg/injection, schedule: Q01DX009 (ip), vehicle: Klucel (hydroxypropylcellulose) (HPC).
Where [4] appears, read: dose: 200.0 mg/kg/injection, schedule: Q04DX003 (ip), vehicle: Klucel (hydroxypropylcellulose) (HPC).
The mark [5] stands for this setting: dose: 400.0 mg/kg/injection, schedule: Q01DX009 (ip), vehicle: Klucel (hydroxypropylcellulose) (HPC).
Setting [6] is: dose: 400.0 mg/kg/injection, schedule: Q04DX003 (ip), vehicle: Klucel (hydroxypropylcellulose) (HPC).
The mark [7] stands for this setting: dose: 100.0 mg/kg/injection, schedule: Q04DX003 (ip), vehicle: saline with Tween-80.
Where [8] appears, read: dose: 200.0 mg/kg/injection, schedule: Q04DX003 (ip), vehicle: saline with Tween-80.
[9] abbreviates: dose: 400.0 mg/kg/injection, schedule: Q04DX003 (ip), vehicle: saline with Tween-80.
The mark [10] stands for this setting: dose: 100.0 mg/kg/injection, schedule: Q01DX009 (ip), vehicle: saline with Tween-80.
Setting [11] is: dose: 200.0 mg/kg/injection, schedule: Q01DX009 (ip), vehicle: saline with Tween-80.

“And” between values parts separate entries of the source, which are not always exact repeats. Equal values may be shown once. Inconclusive results and toxic doses are left out.

Consider `C#CCCCCCCCCCC(=O)OC`, for which the T/C under setting [1] was 102 % of control; the T/C under setting [2] is 103 % of control; the T/C under setting [3] was 102 % of control; the T/C under setting [4] was 95 % of control; the T/C under setting [5] was 104 % of control; the T/C under setting [6] is 98 % of control.
On to `NS(=O)(=O)c1ccc(S(=O)(=O)NC2CCCCC2)cc1`, for which the T/C under setting [1] was 101 % of control and the T/C under setting [3] was 101 % of control.
With `CC1(C)OC2COC(OCc3ccccc3)C(OCc3ccccc3)C2O1` (stereo not drawn), the T/C by setting is: under setting [7], 97 % of control; under setting [8], 103 % of control; under setting [9], 97 % of control.
In the case of `CC(C)NNC(=O)c1ccccc1N`, the T/C is, setting by setting: (dose: 25.0 mg/kg/injection, schedule: Q01DX009 (ip), vehicle: Klucel (hydroxypropylcellulose) (HPC)) 103 % of control; (dose: 25.0 mg/kg/injection, schedule: Q04DX003 (ip), vehicle: Klucel (hydroxypropylcellulose) (HPC)) 96 % of control; (dose: 50.0 mg/kg/injection, schedule: Q01DX009 (ip), vehicle: Klucel (hydroxypropylcellulose) (HPC)) 98 % of control; (dose: 50.0 mg/kg/injection, schedule: Q04DX003 (ip), vehicle: Klucel (hydroxypropylcellulose) (HPC)) 89 % of control; under setting [1], 93 % of control; under setting [2], 91 % of control. Further, the T/C was 92 % of control under setting [3], 100 % of control under setting [4] and 94 % of control under setting [6].
For `Nc1ccc(C(=O)c2ccc(N)cc2)cc1`, the T/C is, setting by setting: under setting [1], 98 % of control; (dose: 100.0 mg/kg/injection, schedule: Q04DX002 (ip), vehicle: Klucel (hydroxypropylcellulose) (HPC)) 107 % of control; under setting [3], 120 % of control; (dose: 200.0 mg/kg/injection, schedule: Q04DX002 (ip), vehicle: Klucel (hydroxypropylcellulose) (HPC)) 104 % of control; under setting [5], 106 % of control; (dose: 400.0 mg/kg/injection, schedule: Q04DX002 (ip), vehicle: Klucel (hydroxypropylcellulose) (HPC)) 96 % of control.
Take `NC(=S)N/N=C(\c1ccc(F)cc1)C1CC1`: the T/C reads like this: (dose: 1.0 mg/kg/injection, schedule: Q01DX Z (ip), vehicle: methylcellulose (MC)) 92 % of control; (dose: 2.0 mg/kg/injection, schedule: Q01DX Z (ip), vehicle: methylcellulose (MC)) 101 % of control; (dose: 4.0 mg/kg/injection, schedule: Q01DX Z (ip), vehicle: methylcellulose (MC)) 97 % of control; (dose: 8.0 mg/kg/injection, schedule: Q01DX Z (ip), vehicle: methylcellulose (MC)) 93 % of control; (dose: 8.0 mg/kg/injection, schedule: Q01DX Z (oral), vehicle: methylcellulose (MC)) 100 % of control.
In the case of `c1ccc2cc(SCN3CCOCC3)ccc2c1`, the T/C was 97 % of control under setting [2], 101 % of control under setting [4] and 97 % of control under setting [6].
Take `COc1cc(OC)c2c(=O)c3ccoc3n(C)c2c1OC`: the T/C reads like this: (dose: 50.0 mg/kg/injection, schedule: Q01DX001 (ip), vehicle: carboxymethylcellulose (CMC)) 98 % of control; (dose: 100.0 mg/kg/injection, schedule: Q01DX001 (ip), vehicle: carboxymethylcellulose (CMC)) 98 % of control; (dose: 200.0 mg/kg/injection, schedule: Q01DX001 (ip), vehicle: carboxymethylcellulose (CMC)) 93 % of control; (dose: 400.0 mg/kg/injection, schedule: Q01DX001 (ip), vehicle: carboxymethylcellulose (CMC)) 93 % of control.
In the case of `CC1(C)CN1CC1CO1` (stereo not drawn), the T/C (dose: 3.0 mg/kg/injection, schedule: Q01DX Z (ip), vehicle: saline) was 120 % of control; the T/C (dose: 5.0 mg/kg/injection, schedule: Q01DX Z (ip), vehicle: saline) was 120 % of control; the T/C (dose: 7.0 mg/kg/injection, schedule: Q01DX Z (ip), vehicle: saline) is 114 % of control and 118 % of control and 124 % of control; the T/C (dose: 11.0 mg/kg/injection, schedule: Q01DX Z (ip), vehicle: saline) is 109 % of control.
On to `CCOC(=O)C(Cc1ccccc1Cl)(NC(C)=O)C(=O)OCC`, for which the T/C reads like this: under setting [10], 93 % of control; under setting [11], 100 % of control; (dose: 400.0 mg/kg/injection, schedule: Q01DX009 (ip), vehicle: saline with Tween-80) 104 % of control.
As for `CNC(c1ccncc1)C(NC)c1ccncc1` (stereo not drawn), the T/C by setting is: under setting [1], 94 % of control; under setting [2], 95 % of control; under setting [3], 91 % of control; under setting [4], 95 % of control; under setting [5], 96 % of control; under setting [6], 95 % of control.
In the case of `Cc1ccc(S(=O)(=O)NC(=O)Oc2c(C(C)C)cccc2C(C)C)cc1`, the T/C was 110 % of control (dose: 50.0 mg/kg/injection, schedule: Q04DX003 (ip), vehicle: saline); 110 % of control (dose: 100.0 mg/kg/injection, schedule: Q04DX003 (ip), vehicle: saline); 102 % of control (dose: 200.0 mg/kg/injection, schedule: Q04DX003 (ip), vehicle: saline).
Turning to `COc1ccc(C2(C(=O)O)CCCC2)cc1`, the T/C reads like this: under setting [10], 102 % of control; under setting [7], 103 % of control; under setting [11], 96 % of control; under setting [8], 108 % of control; under setting [9], 97 % of control.
On to `c1ccc([P+](C[P+](c2ccccc2)(c2ccccc2)c2ccccc2)(c2ccccc2)c2ccccc2)cc1`, for which the T/C is, setting by setting: (dose: 0.19 mg/kg/injection, schedule: Q01DX009 (ip), vehicle: Klucel (hydroxypropylcellulose) (HPC)) 98 % of control; (dose: 0.39 mg/kg/injection, schedule: Q01DX009 (ip), vehicle: Klucel (hydroxypropylcellulose) (HPC)) 175 % of control; (dose: 0.78 mg/kg/injection, schedule: Q01DX009 (ip), vehicle: Klucel (hydroxypropylcellulose) (HPC)) 102 % of control; (dose: 1.56 mg/kg/injection, schedule: Q01DX009 (ip), vehicle: Klucel (hydroxypropylcellulose) (HPC)) 97 % of control; (dose: 1.56 mg/kg/injection, schedule: Q04DX003 (ip), vehicle: Klucel (hydroxypropylcellulose) (HPC)) 93 % of control; (dose: 3.12 mg/kg/injection, schedule: Q01DX009 (ip), vehicle: Klucel (hydroxypropylcellulose) (HPC)) 97 % of control. Besides, the T/C was 92 % of control (dose: 3.12 mg/kg/injection, schedule: Q04DX003 (ip), vehicle: Klucel (hydroxypropylcellulose) (HPC)) and 90 % of control (dose: 6.25 mg/kg/injection, schedule: Q04DX003 (ip), vehicle: Klucel (hydroxypropylcellulose) (HPC)).
`COC(=O)c1ccccc1NC(=S)NC(=O)c1ccc(OC)cc1`: the T/C reads like this: under setting [1], 93 % of control; under setting [2], 91 % of control; under setting [3], 98 % of control; under setting [4], 104 % of control; under setting [5], 95 % of control; under setting [6], 96 % of control.
Regarding `C(#[C][Sn]([c]1ccccc1)([c]1ccccc1)[c]1ccccc1)c1ccccc1`, the T/C runs as follows: (dose: 25.0 mg/kg/injection, schedule: Q04DX002 (ip), vehicle: Klucel (hydroxypropylcellulose) (HPC)) 97 % of control; (dose: 50.0 mg/kg/injection, schedule: Q04DX002 (ip), vehicle: Klucel (hydroxypropylcellulose) (HPC)) 90 % of control.
Take `O=C(O)C(=O)Cc1nnn(-c2ccccc2)c1-c1ccccc1`: the T/C was 95 % of control (dose: 75.0 mg/kg/injection, schedule: Q01DX001 (ip), vehicle: acetone); 101 % of control (dose: 150.0 mg/kg/injection, schedule: Q01DX001 (ip), vehicle: acetone); 95 % of control (dose: 300.0 mg/kg/injection, schedule: Q01DX001 (ip), vehicle: acetone).

Source of the values: PubChem BioAssay AID248 (DTP/NCI, 2004).
